Our source for the IC50 and melting point values is patent US6576614B1, “Peptide analogs as irreversible interleukin-1β protease inhibitors” (Vertex Pharmaceuticals Incorporated, priority 1993, dated 2003).

For data set [1], the system named is mature IL-1β release from human monocytes. The data set is described as follows: Release of mature IL-1β from human monocytes (pulse chase assay). To be noted: inhibition of release of mature IL-1β; human monocytes activated with fixed S. aureus; 2-3 donors; read-out: in vivo IC50. It counts as cell-based. The protocol: Compounds of the present invention were tested for their ability to block mature IL-1β release from cells (monocytes) as described in the following protocol:
Protocol for Monitoring Release of Mature IL-1β-From Human Monocytes
Human monocytes were isolated from heparinized leukopheresis units obtained through Biological Specialty Corporation (Lansdale, Pa.). Monocytes were purified by Ficoll-Hupaque (Pharmacia Fine Chemicals, Piscataway, N.J.) gradient centrifugation and more than 95% pure monocyte populations obtained by centrifugal elutriation. The assay was performed on duplicate samples of freshly isolated human monocytes, cultured in suspension at 37° C. and rotated gently in conical bottom polypropylene tubes (Sardstedt Inc., Princeton, N.J.). Human monocytes at a concentration of 5×10^6 cells/mL were resuspended in 1 mL of RPMI 1640 (a common tissue buffer from M.A. Bioproducts, Walkersyille, Md.) containing 1% fetal calf serum (FCS) (HyClone, Logan, Utah) and 50 μg/mL gentamycin (Gibco, Grand Island, N.Y.). The cells were treated either with a compound of the invention (i.e. test compound) or with a non-inhibitor (control compound, typically 0.03% DMSO) for 15 minutes and then activated with 0.01% fixed Staphylococcus aureus (The Enzyme Center, Malden, Mass.) for 1 hour. The cells were then centrifuged and resuspended in 1 mL of cysteine, methionine-free RPMI media containing 1% dialyzed FCS (Hyclone). The cells were pretreated with a test compound or control compound for 15 minutes after which 0.01% fixed S. aureus plus 100 μCi Tran 35-S label (ICN, Irvine, Calif.) was added and the cells incubated at 37° C. for 1 hour. After incubation, cells were centrifuged, washed once in phosphate buffer saline and resuspended in 1 ML RPMI containing 1% fetal calf serum The cells were again pretreated with a test or control compound for 15 minutes and then 0.01% S. aureus for 2 hours. At the end of the incubation, cells were centrifuged and supernates saved for immunoprecipitation. Cells were washed once in phosphate buffer saline and then lysed in RIPA, a continuous cell media buffer containing 2 mM phenylmethylsulfonyl fluoride, 10 mM iodoacetate, 1 μg/mL pepstatin A, 1 μg/mL leupeptin and 0.5 TIU aprotinin.
For the immunoprecipitations, an equal volume of 1% dry milk in RIPA buffer plus 50 μL of resuspended protein A sepharose CL-4B (Pharmacia, Piscataway, N.Y.) was added to supernates and 1 mL of 4% dry milk containing protein A sepharose CL-4B to cell lysates and samples rotated for 30 minutes at 4° C. Beads were then centrifuged down, samples transferred to fresh tubes and incubated overnight with 40 μg rabbit antihuman IL1B polyclonal antibody (Genzyme, Cambridge, Mass.). The IL-1β proteins were then precipitated with 70 μL protein A sepharose, resuspended in 60 μL SDS sample buffer and run on 15% […] gels. Autoradiography was performed on dried gels and the amount of radioactivity (counts per minute, cpm) quantitated using a Betascope 603 analyzer.
In the monocyte pulse chase assay, each test parameter was run in duplicate. Data was collected from the Beta Scope using a personal computer, then transferred to the VAX system for calculation of mean cpm and standard deviation of the mean. When test compounds were evaluated, the percent inhibition of release of mature IL1β was calculated as follows:
100×[1−(cells treated with stimuli+test compound−unstimulated cells)/(cells teed with stimuli+control compound−unstimulated cells)]
These % inhibition values were then used to calculate IC50 value for each compound. Since the human monocyte pulse chase assay uses primary cells from different donors, each test compound was run in 2-3 separate experiments, using monocytes from 2-3 different donors.

Data set [2] concerns the target T1, IL-1β protease (Homo sapiens, UniProt P29466).
T1 construct: Partially purified IL-1β protease is stored at −80° C
T1 sequence (P29466 120-297 limits assumed): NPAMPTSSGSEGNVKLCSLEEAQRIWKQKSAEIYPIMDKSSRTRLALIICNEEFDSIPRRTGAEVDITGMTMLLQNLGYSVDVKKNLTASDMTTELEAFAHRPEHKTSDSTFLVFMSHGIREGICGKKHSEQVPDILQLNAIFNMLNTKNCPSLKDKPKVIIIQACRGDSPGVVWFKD
T1 sequence (P29466 317-404 limits assumed): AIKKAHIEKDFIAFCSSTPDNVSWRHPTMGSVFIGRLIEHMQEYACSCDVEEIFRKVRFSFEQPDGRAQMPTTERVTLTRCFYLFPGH
The data set is described as follows: IL-1β protease inhibition activity (HPLC assay, substrate TRITC-AYVHDAPVRS-NH2). It counts as biochemical. The conditions noted are these: partially purified IL-1β protease; 15 min preincubation with inhibitor at 37° C., 60 min reaction. The procedure: Compounds of the present invention were tested for IL-1β protease inhibition activity according to the following protocol:
Partially purified IL-1β protease is stored at −80° C., thawed on ice, and preincubated for 10 minutes at 37° C. with 2.5 mM dithiothreitol in a buffer solution containing 10 mM Tris-HCl (pH 8.0) and 25% (v/w) glycerol. Inhibitors are prepared as stock solutions in dimethyl sulfoxide (DMSO). The protease is preincubated with inhibitor in a volume of […] in a 1.5 ml polypropylene microcentrifuge tube for 15 minutes at 37° C. The volume of compound added to the assay is adjusted to yield a DMSO concentration in the preincubation of <15% (v/v). The enzyme assay is then initiated by the addition of substrate (TRITC-AYVHDAPVRS-NH2) to yield a final concentration of […] in a final volume of […]. The reaction are carried out for 60 minutes at 37° C. in the dark and are terminated by the addition of […] of 10% trifluoroacetic acid (TFA). Following the addition of […] of 0.1% TFA, the samples are analyzed by high pressure liquid chromatography using a reverse phase (C18) column and elution with an acetonitrile/water/FA gradient. Substrate and product are monitored by their absorbance at 550 nm and elute at 4.2 and 5.2 minutes, respectively.

Broadly, the IC50 is the midpoint of a concentration-inhibition curve. `O=C(O)C[C@H](NC(=O)OCc1ccccc1)C(=O)COC(=O)c1c(Cl)cccc1Cl` [Example 38, N-benzyloxycarbonyl-L-aspartic acid 2,6-dichlorobenzoyloxymethyl ketone]: the IC50 in data set [1] was determined as 10 µM; in data set [2] it was 0.05 µM.

`O=C(O)C[C@H](NC(=O)OCc1ccccc1)C(=O)COC(=O)c1c(C(F)(F)F)cccc1C(F)(F)F` [Example 40, N-Benzyloxycarbonyl-L-aspartic acid 2,6-ditrifluoromethyl benzoyloxymethyl ketone] displayed an IC50 in data set [2] of 0.1 µM.

As to `O=C(O)C[C@H](NC(=O)OCc1ccccc1)C(=O)COc1c(Cl)cccc1Cl` [Example 41, N-Benzyloxycarbonyl-L-aspartic acid 2,6 dichlorophenoxymethyl ketone], inhibition in data set [2] was half-maximal at 0.1 µM (IC50).

In general, melting point refers to the temperature of the solid-liquid transition. As for `O=C(O)C[C@H](NC(=O)OCc1ccccc1)C(=O)COc1ccc(S(=O)(=O)N2CCOCC2)cc1F` [Example 42, N-Benzyloxycarbonyl-L-aspartic acid 2-fluoro-4-(N-morpholinylsulfonamido)phenoxymethyl ketone], the melting point fell in the range of 65 to 66 °C. The molecule further came in with an IC50 in data set [2] of 0.32 µM.

As to `COc1cccc(OC)c1C(=O)OCC(=O)[C@H](CC(=O)O)NC(=O)OCc1ccccc1` [Example 45, N-Benzyloxycarbonyl-L-aspartic acid 2,6-dimethoxybenzoyloxy methyl ketone], in data set [1], the IC50 is approximately 100 µM.

For the molecule `O=C(O)C[C@H](NC(=O)OCc1ccccc1)C(=O)COC(=O)c1c(F)cccc1F` [Example 48, N-Benzyloxycarbonyl-L-aspartic acid 2,6-difluorobenzoyloxymethyl ketone], in data set [1], the 50% inhibitory concentration (IC50) was approximately 100 µM.

As for `CCCCNS(=O)(=O)c1ccc(Cl)c(C(=O)OCC(=O)[C@H](CC(=O)O)NC(=O)OCc2ccccc2)c1Cl` [Example 49, N-Benzyloxycarbonyl-L-aspartic acid 3-(N-butylsulfonamido)-2,6-dichlorobenzoyloxymethyl ketone], the melting point is 48 to 50 °C. This molecule registered an IC50 in data set [2] of 0.09 µM.

In the case of `NC(=O)CNS(=O)(=O)c1ccc(Cl)c(C(=O)OCC(=O)[C@H](CC(=O)O)NC(=O)OCc2ccccc2)c1Cl` [Example 52, N-Benzyloxycarbonyl-L-aspartic acid 3-(N-[2-aminoacetamidoyl]sulfonamido)-2,6-dichlorobenzoyloxymethyl ketone], the melting point is 54 to 56 °C. The IC50 in data set [2] came out at 0.06 µM.

Consider `O=C(O)C[C@H](NC(=O)OCc1ccccc1)C(=O)COC(=O)c1c(Cl)ccc(S(=O)(=O)N2CCOCC2)c1Cl` [Example 53, N-Benzyloxycarbonyl-L-aspartic acid 2,6-dichloro-3-(N-morpholinylsulfonamido)benzoyloxymethyl ketone], for which half-maximal inhibition in data set [2] (IC50) was put at 0.09 µM.

Take `COC(=O)N[C@@H](C)C(=O)N[C@@H](CC(=O)O)C(=O)COC(=O)c1c(Cl)cccc1Cl` [Example 54, N-Methoxycarbonyl-L-alanine-L-aspartic acid 2,6-dichlorobenzoyloxymethyl ketone]: the IC50 in data set [2] is 0.06 µM.

As for `COC(=O)N[C@@H](Cc1ccccc1)C(=O)N[C@@H](CC(=O)O)C(=O)COC(=O)c1c(Cl)cccc1Cl` [Example 57, N-Methoxycarbonyl-L-phenylalanine-L-aspartic acid 2,6-dichlorobenzoyloxymethyl ketone], in data set [2], the IC50 worked out at 0.07 µM.

Regarding `CC(C)[C@H](NC(=O)OCc1ccccc1)C(=O)N[C@@H](CC(=O)O)C(=O)COC(=O)c1c(Cl)cccc1Cl` [Example 61, N-Benzyloxycarbonyl-L-valine-L-aspartic acid 2,6-dichlorobenzoyloxy-methyl ketone], the IC50 in data set [1] is 0.9 µM.

With `CC(C)[C@H](NC(=O)OCc1ccccc1)C(=O)N[C@@H](C)C(=O)N[C@@H](CC(=O)O)C(=O)COC(=O)c1c(Cl)cccc1Cl` [Example 63, N-Benzyloxycarbonyl-L-valine-L-alanine-L-aspartic acid 2,6-di-chlorobenzoyloxymethyl ketone], the IC50 in data set [1] stood at 0.5 µM.

`O=C(O)C[C@H](NC(=O)c1ccco1)C(=O)COC(=O)c1c(Cl)cccc1Cl` [Example 64, N-(2-Furonyl)carbonyl-L-aspartic acid 2,6-dichlorobenzoyloxymethyl ketone]: in data set [2], the IC50 was found to be 0.14 µM.

Consider `O=C(O)C[C@H](NC(=O)c1ccco1)C(=O)COC(=O)c1c(Cl)ccc(S(=O)(=O)N2CCOCC2)c1Cl` [Example 65, N-(2-Furonyl)carbonyl-L-aspartic acid 2,6-dichloro-3-(N-morpholinylsulfonamido)benzoyloxymethyl ketone], for which the IC50 in data set [1] came to 30 µM.

Turning to `CN(C)Cc1ccc(C(=O)N[C@@H](CC(=O)O)C(=O)COC(=O)c2c(Cl)cccc2Cl)cc1` [Example 68, N-(4-N,N-dimethylaminomethyl)benzoyl-L-aspartic acid 2,6-dichlorobenzoyloxymethyl ketone], the melting point is 55 to 57 °C. In data set [2], this molecule displayed a half-maximal inhibitory concentration (IC50) of 0.3 µM.

With `O=C(O)C[C@@H](NC(=O)OCc1ccccc1)C(=O)COC(=O)c1c(Cl)cccc1Cl` [Example 69, N-Benzyloxycarbonyl-D-aspartic acid 2,6-dichlorobenzoyloxymethyl ketone], in data set [1], the IC50 worked out at 10 µM.

Regarding `O=C(O)C[C@H](NC(=O)COC(=O)c1c(Cl)cccc1Cl)C(=O)COC(=O)c1c(Cl)cccc1Cl` [Example 70], in data set [2], the concentration for half-maximal inhibition (IC50) is 0.2 µM.

In the case of `CCN(CC)S(=O)(=O)c1c(F)c(F)c(OCC(=O)[C@H](CC(=O)O)NC(=O)[C@@H](NC(=O)OCc2ccccc2)C(C)C)c(F)c1F` [Example 71, N-Benzyloxycarbonyl-L-valine-L-aspartic acid 4-(N,N-diethyl-sulfonamido)-2,3,5,6-tetrafluorophenoxymethyl ketone], in data set [1], the concentration for half-maximal inhibition (IC50) is 5 µM.

For the molecule “N-Methoxycarbonyl-L-aspartic acid 2,6-dichlorobenzoyloxymethyl ketone [Example 67]”, inhibition in data set [2] was half-maximal at 0.08 µM (IC50).

As to “N-Methoxycarbonyl-L-valine-L-aspartic acid 2,6-dichlorobenzoyloxy-methyl ketone [Example 59]”, the IC50 in data set [1] is 10 µM.
